Source: article PMC12802110, “Biochemical characterization of the full-length isoform of soluble adenylyl cyclase” (The Journal of Biological Chemistry, 2025)
Where two headings read alike, the source gives them in different places.

Tests used:
[1] = system: mouse and human sACfl and sACt; assay: In vitro adenylyl cyclase activity assay, one result stated for all four sAC proteins; type: biochemical; settings: for inhibition of cyclase activity at 10 mM: 10 mM test substance
mouse sACfl = biological target: T1, mouse sACfl (Mus musculus, UniProt Q8C0T9); assay: In vitro adenylyl cyclase activity assay (two-column method), endogenous mouse sACfl (FLAG); type: biochemical; settings: for EC50: 2 mM ATP
T1 construct: Schematic of full-length (sACfl) and truncated (sACt) sAC isoforms; from tissue; host or cells: testes of homozygous double knock-in mice (FLAG pulldown, eluted with 3xFLAG peptide)
Description: (§1) […]. To determine specific activities of endogenous mouse proteins, sACfl and sACt were quantitated by Western blot. For ATP kinetics, representative experiments are shown with SEM determined from normalized data.

mouse sACt = biological target: T2, mouse sACt (Mus musculus, UniProt Q8C0T9); assay: In vitro adenylyl cyclase activity assay (two-column method), endogenous mouse sACt (Strep); type: biochemical; settings: for EC50: 2 mM ATP
T2 construct: from tissue; host or cells: testes of homozygous double knock-in mice (Strep pulldown after FLAG depletion, eluted with biotin)
T2 sequence (Q8C0T9 1-471 isoform Q8C0T9-2): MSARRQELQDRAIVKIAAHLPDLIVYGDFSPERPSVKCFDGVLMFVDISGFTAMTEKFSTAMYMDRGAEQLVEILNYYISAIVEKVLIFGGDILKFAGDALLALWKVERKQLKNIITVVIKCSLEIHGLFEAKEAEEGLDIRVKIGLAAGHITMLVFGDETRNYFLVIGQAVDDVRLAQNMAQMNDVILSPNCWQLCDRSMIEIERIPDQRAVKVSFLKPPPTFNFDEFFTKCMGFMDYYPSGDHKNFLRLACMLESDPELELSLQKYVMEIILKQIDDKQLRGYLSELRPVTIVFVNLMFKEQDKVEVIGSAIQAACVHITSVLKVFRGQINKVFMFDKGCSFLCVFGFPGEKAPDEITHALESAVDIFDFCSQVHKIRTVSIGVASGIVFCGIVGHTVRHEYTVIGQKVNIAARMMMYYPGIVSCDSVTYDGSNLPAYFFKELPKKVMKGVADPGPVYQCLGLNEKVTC
Description: as §1

human sACfl = biological target: T3, human sACfl (Homo sapiens, UniProt Q96PN6); assay: In vitro adenylyl cyclase activity assay (two-column method), heterologously expressed human sACfl (GFP nanobody purified, complexed with Hsp70); type: biochemical; settings: for EC50: 2 mM ATP
T3 construct: Schematic of full-length (sACfl) and truncated (sACt) sAC isoforms; eGFP (C, cleaved yes); His-tag (on eGFP) (C, cleaved yes); PreScission protease site (C); made in house; host or cells: Expi293 cells

human sACt = biological target: T4, human sACt (Homo sapiens, UniProt Q96PN6); assay: In vitro adenylyl cyclase activity assay (two-column method), heterologously expressed human sACt (GST); type: biochemical; settings: for EC50: 2 mM ATP
T4 construct: sACt contains only the C1 and C2 catalytic domains; GST; made in house
T4 sequence (Q96PN6 1-469 limits assumed): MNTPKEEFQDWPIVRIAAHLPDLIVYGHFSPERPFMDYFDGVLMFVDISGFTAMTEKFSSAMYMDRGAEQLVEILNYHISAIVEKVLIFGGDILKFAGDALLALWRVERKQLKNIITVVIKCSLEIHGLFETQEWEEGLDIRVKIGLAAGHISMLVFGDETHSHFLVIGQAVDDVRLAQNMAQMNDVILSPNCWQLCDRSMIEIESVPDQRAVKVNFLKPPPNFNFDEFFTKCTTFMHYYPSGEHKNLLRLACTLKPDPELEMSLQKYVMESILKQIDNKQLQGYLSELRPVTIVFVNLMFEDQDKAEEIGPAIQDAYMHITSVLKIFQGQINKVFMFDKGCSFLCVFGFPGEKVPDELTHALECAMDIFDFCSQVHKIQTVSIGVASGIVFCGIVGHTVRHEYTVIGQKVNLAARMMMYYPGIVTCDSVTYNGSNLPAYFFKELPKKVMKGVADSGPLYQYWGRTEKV

sAC = system: sAC; set-up: method as in PMID 24100033; settings: read-out: KM of sAC's substrate ATP; cited from earlier work
[2] = biological target: T5, mouse sAC isoforms (sACfl and sACt) (Mus musculus, UniProt Q8C0T9); assay: In vitro adenylyl cyclase activity assay, one result stated for both mouse sAC isoforms; settings: read-out: IC50, mouse sAC; text summary (Fig. 5)
T5 sequence (Q8C0T9 1-469 limits assumed): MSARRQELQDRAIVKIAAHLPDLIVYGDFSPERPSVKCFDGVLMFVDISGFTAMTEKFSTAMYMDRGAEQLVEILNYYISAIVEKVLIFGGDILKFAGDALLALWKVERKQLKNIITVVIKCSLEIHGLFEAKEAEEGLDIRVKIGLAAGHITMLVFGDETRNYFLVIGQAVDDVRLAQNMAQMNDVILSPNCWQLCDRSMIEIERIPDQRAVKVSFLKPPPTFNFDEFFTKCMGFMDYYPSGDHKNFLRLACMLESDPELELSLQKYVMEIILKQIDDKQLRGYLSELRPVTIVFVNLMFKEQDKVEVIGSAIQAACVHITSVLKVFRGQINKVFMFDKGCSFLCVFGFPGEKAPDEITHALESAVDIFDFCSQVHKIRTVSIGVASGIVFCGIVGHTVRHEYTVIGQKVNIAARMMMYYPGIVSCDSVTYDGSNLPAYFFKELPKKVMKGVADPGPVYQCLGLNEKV

[3] = 2 mM ATP, 10 mM MgCl2, 10 mM CaCl2, 40 mM NaHCO3
[4] = in the presence of Mg^2+, Ca^2+ and HCO3^- (20-40 mM MgCl2, 10 mM CaCl2, 40 mM NaHCO3), read-out: KM for substrate Mg^2+-ATP
[5] = 10 mM MgCl2, 40 mM NaHCO3, read-out: EC50 for Ca^2+
[6] = 10 mM MgCl2, 10 mM CaCl2, read-out: EC50 for HCO3^-
[7] = 10 mM MgCl2, 10 mM CaCl2, 40 mM NaHCO3

T3 sequence (Q96PN6 whole entry, the tested form may be a part, canonical isoform): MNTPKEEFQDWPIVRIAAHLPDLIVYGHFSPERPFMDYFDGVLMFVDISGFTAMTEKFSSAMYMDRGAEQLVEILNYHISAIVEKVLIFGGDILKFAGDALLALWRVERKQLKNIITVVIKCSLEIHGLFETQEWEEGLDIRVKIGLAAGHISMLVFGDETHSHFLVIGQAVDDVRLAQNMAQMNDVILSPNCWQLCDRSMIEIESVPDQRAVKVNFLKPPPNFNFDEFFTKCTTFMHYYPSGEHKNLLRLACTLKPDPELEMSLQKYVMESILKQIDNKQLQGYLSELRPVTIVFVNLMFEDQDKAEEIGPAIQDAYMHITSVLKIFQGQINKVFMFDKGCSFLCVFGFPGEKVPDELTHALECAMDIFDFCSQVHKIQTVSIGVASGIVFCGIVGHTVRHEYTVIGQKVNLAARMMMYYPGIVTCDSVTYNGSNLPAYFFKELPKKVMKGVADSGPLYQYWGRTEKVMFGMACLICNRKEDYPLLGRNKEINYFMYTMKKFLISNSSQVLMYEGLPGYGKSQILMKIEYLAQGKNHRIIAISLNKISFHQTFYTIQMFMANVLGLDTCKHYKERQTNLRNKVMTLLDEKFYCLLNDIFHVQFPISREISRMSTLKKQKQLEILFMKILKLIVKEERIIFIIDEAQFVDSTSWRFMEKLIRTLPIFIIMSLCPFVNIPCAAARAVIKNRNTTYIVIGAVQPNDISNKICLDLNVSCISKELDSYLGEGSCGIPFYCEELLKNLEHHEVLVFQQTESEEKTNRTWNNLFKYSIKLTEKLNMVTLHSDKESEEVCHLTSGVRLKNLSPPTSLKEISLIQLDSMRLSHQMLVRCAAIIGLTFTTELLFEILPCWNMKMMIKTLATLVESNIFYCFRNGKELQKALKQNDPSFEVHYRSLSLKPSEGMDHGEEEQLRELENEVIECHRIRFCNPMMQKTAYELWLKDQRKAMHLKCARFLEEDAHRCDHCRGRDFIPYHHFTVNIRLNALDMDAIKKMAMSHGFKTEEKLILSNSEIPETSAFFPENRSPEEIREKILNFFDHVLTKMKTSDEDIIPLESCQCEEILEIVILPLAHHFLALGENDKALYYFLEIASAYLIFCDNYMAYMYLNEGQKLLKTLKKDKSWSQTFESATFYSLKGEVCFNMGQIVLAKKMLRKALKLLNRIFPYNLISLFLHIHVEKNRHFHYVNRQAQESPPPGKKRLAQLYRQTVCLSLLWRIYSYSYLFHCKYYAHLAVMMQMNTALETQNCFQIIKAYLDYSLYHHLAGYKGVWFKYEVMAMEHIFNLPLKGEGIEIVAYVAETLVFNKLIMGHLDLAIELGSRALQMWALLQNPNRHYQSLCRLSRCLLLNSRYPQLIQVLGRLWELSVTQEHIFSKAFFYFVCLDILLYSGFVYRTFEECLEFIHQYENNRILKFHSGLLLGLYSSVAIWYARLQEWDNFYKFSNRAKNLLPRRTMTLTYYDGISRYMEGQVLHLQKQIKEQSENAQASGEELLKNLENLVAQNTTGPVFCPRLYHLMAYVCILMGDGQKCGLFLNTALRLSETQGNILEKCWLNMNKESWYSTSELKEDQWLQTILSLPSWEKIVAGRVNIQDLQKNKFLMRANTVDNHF
T3 sequence (P0DMV8 whole entry partner, the tested form may be a part, canonical isoform): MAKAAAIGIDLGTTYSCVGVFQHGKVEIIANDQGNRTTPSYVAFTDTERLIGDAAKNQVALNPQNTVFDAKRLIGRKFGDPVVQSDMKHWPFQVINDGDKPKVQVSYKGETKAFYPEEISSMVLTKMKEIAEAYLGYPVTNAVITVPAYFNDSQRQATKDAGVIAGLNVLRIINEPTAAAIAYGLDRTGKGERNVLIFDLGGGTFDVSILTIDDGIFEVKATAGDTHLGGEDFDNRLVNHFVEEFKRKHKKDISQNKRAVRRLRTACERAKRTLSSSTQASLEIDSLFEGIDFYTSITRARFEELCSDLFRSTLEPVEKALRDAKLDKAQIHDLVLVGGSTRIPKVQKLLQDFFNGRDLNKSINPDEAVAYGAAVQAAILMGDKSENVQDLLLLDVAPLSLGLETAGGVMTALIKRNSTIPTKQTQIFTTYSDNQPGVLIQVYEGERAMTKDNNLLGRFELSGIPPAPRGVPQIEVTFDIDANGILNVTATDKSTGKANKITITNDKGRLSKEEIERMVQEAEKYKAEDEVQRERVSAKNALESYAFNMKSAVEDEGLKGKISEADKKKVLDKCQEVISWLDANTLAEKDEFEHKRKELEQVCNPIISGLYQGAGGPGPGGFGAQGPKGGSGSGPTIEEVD
T1 sequence (Q8C0T9 whole entry, the tested form may be a part, canonical isoform): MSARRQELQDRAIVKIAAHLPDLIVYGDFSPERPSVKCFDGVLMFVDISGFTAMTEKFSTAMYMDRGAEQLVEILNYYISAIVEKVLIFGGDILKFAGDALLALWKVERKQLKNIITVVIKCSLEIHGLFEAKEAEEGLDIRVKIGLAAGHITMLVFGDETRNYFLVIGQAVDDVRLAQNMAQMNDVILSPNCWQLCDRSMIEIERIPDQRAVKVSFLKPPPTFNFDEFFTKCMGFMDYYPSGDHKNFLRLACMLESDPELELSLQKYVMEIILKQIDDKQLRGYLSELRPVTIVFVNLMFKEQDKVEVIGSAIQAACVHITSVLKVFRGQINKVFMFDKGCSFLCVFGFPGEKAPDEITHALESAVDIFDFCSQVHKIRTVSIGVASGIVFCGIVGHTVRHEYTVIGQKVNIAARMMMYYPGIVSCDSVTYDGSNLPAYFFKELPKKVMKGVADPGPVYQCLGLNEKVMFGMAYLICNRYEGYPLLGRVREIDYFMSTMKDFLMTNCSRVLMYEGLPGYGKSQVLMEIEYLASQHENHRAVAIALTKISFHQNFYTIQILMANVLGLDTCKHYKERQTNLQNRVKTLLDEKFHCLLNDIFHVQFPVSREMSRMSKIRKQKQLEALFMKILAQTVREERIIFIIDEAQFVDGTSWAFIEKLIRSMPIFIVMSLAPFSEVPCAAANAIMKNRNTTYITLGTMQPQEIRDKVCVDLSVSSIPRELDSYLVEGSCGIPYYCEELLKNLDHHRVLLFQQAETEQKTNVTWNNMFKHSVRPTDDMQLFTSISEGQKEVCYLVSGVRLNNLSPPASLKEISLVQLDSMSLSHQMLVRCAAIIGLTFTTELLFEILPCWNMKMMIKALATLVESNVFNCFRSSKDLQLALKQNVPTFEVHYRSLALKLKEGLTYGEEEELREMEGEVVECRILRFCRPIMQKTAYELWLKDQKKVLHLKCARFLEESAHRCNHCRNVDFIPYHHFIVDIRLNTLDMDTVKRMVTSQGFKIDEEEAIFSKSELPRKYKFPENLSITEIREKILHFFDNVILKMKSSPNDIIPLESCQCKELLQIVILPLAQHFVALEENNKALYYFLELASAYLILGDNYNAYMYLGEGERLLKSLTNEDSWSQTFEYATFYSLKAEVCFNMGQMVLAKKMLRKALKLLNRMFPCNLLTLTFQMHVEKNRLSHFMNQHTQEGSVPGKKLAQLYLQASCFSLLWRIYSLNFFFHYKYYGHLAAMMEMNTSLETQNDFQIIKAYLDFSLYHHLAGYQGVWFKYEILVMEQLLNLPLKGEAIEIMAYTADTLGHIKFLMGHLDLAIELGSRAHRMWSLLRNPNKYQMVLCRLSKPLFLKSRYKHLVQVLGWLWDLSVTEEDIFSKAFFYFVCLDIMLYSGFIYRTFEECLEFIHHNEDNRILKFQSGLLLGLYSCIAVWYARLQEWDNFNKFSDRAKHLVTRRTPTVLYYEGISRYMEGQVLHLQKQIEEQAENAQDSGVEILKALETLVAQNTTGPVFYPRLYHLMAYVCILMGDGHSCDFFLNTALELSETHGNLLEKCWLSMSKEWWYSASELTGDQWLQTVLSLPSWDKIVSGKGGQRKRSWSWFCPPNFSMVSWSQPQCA

Nc1ncnc2c1ncn2[C@@H]1O[C@H](COP(=O)(O)OP(=O)(O)O)[C@@H](O)[C@H]1O [ADP]
inhibition of cyclase activity at 10 mM [1, 3]: ∼75% inhibition at 10 mM
inhibition of cyclase activity (in words) ([1]; at 10 mM): some inhibition

Nc1ncnc2c1ncn2[C@@H]1O[C@H](COP(=O)(O)O)[C@@H](O)[C@H]1O [AMP]
inhibition of cyclase activity at 10 mM [1, 3]: No inhibition at 10 mM
inhibition of cyclase activity (in words) ([1]; at concentrations up to 10 mM): no inhibition

Nc1ncnc2c1ncn2[C@@H]1O[C@H](COP(=O)(O)OP(=O)(O)OP(=O)(O)O)[C@@H](O)[C@H]1O [ATP]
Km (mouse sACfl; [4]): 2200 ± 390 µM
Km (mouse sACt; [4]): 2700 ± 250 µM
Km (human sACfl; [4]): 2200 ± 300 µM
Km (human sACt; [4]): 1800 ± 280 µM
Km (sAC): ~2000 µM

Nc1ncnc2c1ncn2[C@@H]1O[C@H](CO)[C@@H](O)[C@H]1O [Adenosine]
inhibition of cyclase activity at 10 mM [1, 3]: >50% inhibition at 10 mM
inhibition of cyclase activity (in words) ([1]; at 10 mM): some inhibition

Nc1ccn([C@@H]2O[C@H](COP(=O)(O)OP(=O)(O)OP(=O)(O)O)[C@@H](O)[C@H]2O)c(=O)n1 [CTP]
inhibition of cyclase activity at 10 mM [1, 3]: >50% inhibition at 10 mM

[Ca+2].[Cl-].[Cl-] [Ca^2+]
EC50 (mouse sACfl; [5]): 1300 ± 150 µM
EC50 (mouse sACt; [5]): 1400 ± 110 µM
EC50 (human sACfl; [5]): 1700 ± 150 µM
EC50 (human sACt; [5]): 1700 ± 160 µM

Nc1nc2c(ncn2[C@@H]2O[C@H](COP(=O)(O)OP(=O)(O)O)[C@@H](O)[C@H]2O)c(=O)[nH]1 [GDP]
inhibition of cyclase activity at 10 mM [1, 3]: ∼75% inhibition at 10 mM
inhibition of cyclase activity (in words) ([1]; at 10 mM): some inhibition

Nc1nc2c(ncn2[C@@H]2O[C@H](COP(=O)(O)O)[C@@H](O)[C@H]2O)c(=O)[nH]1 [GMP]
inhibition of cyclase activity at 10 mM [1, 3]: No inhibition at 10 mM
inhibition of cyclase activity (in words) ([1]; at concentrations up to 10 mM): no inhibition

Nc1nc2c(ncn2[C@@H]2O[C@H](COP(=O)(O)OP(=O)(O)OP(=O)(O)O)[C@@H](O)[C@H]2O)c(=O)[nH]1 [GTP]
inhibition of cyclase activity at 10 mM [1, 3]: ∼50% inhibition at 10 mM

O=C(O)O [HCO3^–]
EC50 (mouse sACfl; [6]): 21000 ± 1900 µM
EC50 (mouse sACt; [6]): 19000 ± 1600 µM
EC50 (human sACfl; [6]): 14000 ± 1200 µM
EC50 (human sACt; [6]): 14000 ± 1000 µM

O=c1[nH]cnc2c1ncn2[C@@H]1O[C@H](COP(=O)(O)OP(=O)(O)OP(=O)(O)O)[C@@H](O)[C@H]1O [ITP]
inhibition of cyclase activity at 10 mM [1, 3]: ∼50% inhibition at 10 mM

O=P(O)(O)OP(=O)(O)O [Pyrophosphate]
inhibition of cyclase activity at 1 mM ([1]; 1 mM test substance, 2 mM ATP, 10 mM MgCl2, 10 mM CaCl2, 40 mM NaHCO3): ~25%
inhibition of cyclase activity at 10 mM [1, 3]: > 90%
inhibition of cyclase activity (in words) ([1]; at 1 mM): slight inhibition
inhibition of cyclase activity (in words) ([1]; at concentrations >10 mM): fully inhibited

Nc1nc(Cl)cc(-c2nn(C(F)F)cc2Cc2ccccc2OCCN2CCOC[C@H]2CO)n1 [TDI-11861]
IC50 (mouse sACfl; [7]): 0.0224 ± 0.0093 µM
IC50 (mouse sACt; [7]): 0.0211 ± 0.0045 µM
IC50 [2]: ~0.021 µM

Cc1cn([C@H]2C[C@H](O)[C@@H](COP(=O)(O)OP(=O)(O)OP(=O)(O)O)O2)c(=O)[nH]c1=O [TTP]
inhibition of cyclase activity at 10 mM [1, 3]: ∼50% inhibition at 10 mM

O=c1ccn([C@@H]2O[C@H](COP(=O)(O)OP(=O)(O)OP(=O)(O)O)[C@@H](O)[C@H]2O)c(=O)[nH]1 [UTP]
inhibition of cyclase activity at 10 mM [1, 3]: ∼50% inhibition at 10 mM
